Like-named read-outs stand apart in the source and are kept apart here. Values belong to the molecule of their own block, whether it stands above or below them.
What was measured:
[1] = Plasma magnesium by atomic absorption flame emission spectroscopy; type: in vivo, Sprague-Dawley rats; conditions: for change in circulating Mg level vs time-matched control: erlotinib starting 10 mg/kg/day oral
Procedure: Individually-housed rats were weighed and food consumption recorded daily to obtain actual drug dosage: time-range average erlotinib dose over 9 weeks was 7.07 mg/kg/day, and time-range average Emend dose over 9 weeks was 1.41 mg/kg/day.
Magnesium levels in 1:50 or 1:100 diluted, acidified (nitric acid) plasma samples were determined by atomic absorption flame emission spectroscopy (wavelength=285.2 nm) using an AA-6200 Shimadzu spectrophotometer (Columbia, Md.) as described (13). Values obtained from standard curves were mg/dl, and reported as % of control.
Plasma was assessed for magnesium by flame emission atomic absorption spectroscopy (FIG. 2A). Data are the means±SEM of 5-7 animals per group. * p<0.05, **p<0.01 and # p<0.001 compared with the time-matched control group; +p<0.055 versus erlotinib alone. Plasma SP (FIG. 2B) was assessed by a colorimetric ELISA kit.

[2] = Plasma substance P (SP) by ELISA; type: in vivo, Sprague-Dawley rats; conditions: for increase in circulating SP vs time-matched control: erlotinib
Procedure: (§1) Experiments on animals were conducted in accordance with the principles given in the US Department of Health and Human Services Guide for the Care and Use of Laboratory Animals and were approved by The George Washington University Institutional Animal Care and Use Committee. Male Sprague-Dawley rats (125-150 g) were purchased from Hilltop Lab Animals, Inc. (Scottdale, Pa.). After 1 week of quarantine, all age-matched rats were placed on an ad libitum Mg normal diet (25 mmole magnesium oxide/kg food regarded as 100% recommended daily allowance for rodents) obtained from Harlan-Teklad (Madison, Wis.) containing extracted casein as the diet base supplemented with essential vitamins and nutrients; or the same diet supplemented with erlotinib (OSI Pharmaceuticals, LLC, Northbrook, Ill. 60062, USA) to obtain a starting dose of 10 mg/kg/day, Emend® (as aprepitant, Merck & Co., INC. USA) to obtain a starting dose of 2 mg/kg/day, or both agents at these doses. Individually-housed rats were weighed and food consumption recorded daily to obtain actual drug dosage: time-range average erlotinib dose over 9 weeks was 7.07 mg/kg/day, and time-range average Emend dose over 9 weeks was 1.41 mg/kg/day. Rats had free access to distilled-deionized water, and were on a 12 h light/dark cycle for up to 9 weeks.
(§2) At periodic intervals, blood was collected (˜0.5 ml) aseptically from the tail of anaesthetized rats (2% isoflurane, EZ Anesthesia Chamber with nose cone)(13, 14) in sterile microtainer plasma separator tubes containing heparin and the protease inhibitor, aprotinin (Sigma Chemicals, St. Louis Mo.) to yield final blood concentrations of 10.74 units/ml and 0.016 units/ml, respectively. For subsequent samplings, the scab was carefully removed, and the process was repeated. Plasma was obtained after centrifugation (12,000 rpm, 2 min, RT, IDEXX StatSpin VT, Iris International, Inc., Westwood, Mass.). Tail bleed samples were used for assessment of plasma Mg, and substance P levels. Sacrifice blood samples (˜8 ml collected in heparin plus aprotinin containing BD vacutainer SST tubes) were taken from anaesthetized, heparinized (0.3-0.4 ml 358 units/ml heparin in 0.9% NaCl, i.p.) rats from either the vena cava or by cardiac puncture, and were centrifuged (3,500 rpm, 10 min, RT). In addition to the above plasma parameters, sacrifice plasma was also assayed for 8-isoprostane levels, and the whole blood samples were processed for neutrophil isolation and assessment of superoxide anion production.

[3] = Procedure: as §2, with “In addition to the above plasma parameters, sacrifice plasma was also assayed for 8-isoprostane levels, and the whole blood samples were processed for neutrophil isolation and assessment of superoxide anion production.” left out
Hypomagnesemia alone in rodents can promote neutrophil free radical generating activity (Mak et al., Exp. & Clin. Cardiol. 2011, 16(4):121-124; Mak et al., Magnesium Res 2003, 16(2):91-97). […] Circulating neutrophil basal superoxide generating activity was determined as SOD-inhibitable reduction of cytochrome c (FIG. 3A). Plasma 8-isoprostane was assessed by a colorimetric ELISA kit (FIG. 3B). […]

neutrophils = system: neutrophils
Procedure: as §2
At sacrifice, whole blood (3 ml) samples were obtained; neutrophils were isolated by a step-gradient centrifugation method (13,−16). Superoxide anion production from neutrophils (0.5-0.75×10^6/ml) with (stimulated) or without (basal) PMA (phorbol myristate acetate, 100 ng/ml) was assayed in a phosphate buffer (pH 7.6) containing 5 mM glucose, 1 mM CaCl2, 1 mM MgCl2, and 75 μM cytochrome c±50 μg SOD. Superoxide generation was estimated as SOD-inhibitable reduction of cytochrome c using the extinction coefficient: E550=2.1×10^4M^−1cm^−1.
Hypomagnesemia alone in rodents can promote neutrophil free radical generating activity (Mak et al., Exp. & Clin. Cardiol. 2011, 16(4):121-124; Mak et al., Magnesium Res 2003, 16(2):91-97). In the present study, blood was sampled from rats treated with erlotinib (starting 10 mg/kg/day, oral) and/or Emend (aprepitant, starting 2 mg/kg/day, oral) at 9 weeks of exposure. Circulating neutrophil basal superoxide generating activity was determined as SOD-inhibitable reduction of cytochrome c (FIG. 3A). Plasma 8-isoprostane was assessed by a colorimetric ELISA kit (FIG. 3B). Values for erlotinib±Emend rats were compared to time-matched controls, and are means±SEM of 4-6 rats per group. ** p<0.01 versus control; ++p<0.01 versus erlotinib alone. […] Enhanced systemic oxidative stress, as represented by increased total plasma 8-isoprostane content (FIG. 3B), was prominent by 9 weeks (210% increase, p<0.01).

[4] = rat, in vivo
Procedure: as §1, with “weeks. […]” for “weeks.”

[5] = system: nitro-tyrosine in cardiac tissue; experiment: Cardiac nitro-tyrosine immunohistochemical assessment; type: in vivo, Sprague-Dawley rats
Procedure: Cardiac tissue was rapidly excised, rinsed in saline, embedded in OCT compound, quickly frozen and kept at […] until used. Cryosections, 5 um thick, were stained by an indirect, immunohistochemical staining method (13) using rabbit anti-rat Nitrotyrosine antibody (5 ug/ml; Millipore, Billerica, Mass.) and the Vecta-Stain Elite ABC kit immunoperoxidase system (Vector Laboratories, Burlingame, Calif.). Samples were examined under an Olympus BX60 microscope, and multiple images were taken with a digital camera (Evolution Color MP; Media Cybernetics, Silver Spring, Md.). Briefly, fresh frozen sections were fixed in 10% formaldehyde, washed in PBS, incubated with 0.3% hydrogen peroxide in methanol for 30 min to block endogenous peroxidase, washed in PBS and incubated overnight at 4 C with rabbit anti nitrotyrosine antibody, which was applied on every slide except negative control. ABC kit reagents for horseradish peroxidase and 3-3′diaminebenzidine (DAB) were used to visualize the antigen-antibody reaction product as brown color. The sections were counterstained with hematoxylin, rinsed, dehydrated and cleared in series of ethanol and xylene and coverslipped.

[6] = for improvement of AoPmax: NS
Procedure: Anesthetized rats were subjected to echocardiography periodically during the treatment regimens using a GE VingMed System Five Echocardiogram System (12, 13, 17, and 18). Heart rate and rectal temperature (35.9-37.5° C.) were monitored constantly during the imaging. Animals were placed on a warming platform with paws taped down to limit any motion during imaging, and a sterile eye lubricant was applied to prevent eye drying during the procedure. Hair over the thorax was removed first with an electric clipper, and then with a depilatory cream (<2 min exposure). Animals were imaged (10 MHz probe) for about 20 minutes at an image depth of 3 cm. This imaging system allows for both cardiac structure and function evaluation in rats. Systolic function, measured as % fractional shortening (% FS) using M-mode imaging, and left ventricular ejection fraction (LVEF), calculated from M-mode measurements, were assessed. Key anatomical parameters (IVSd & s=inter-ventricular septum diameter in diastole and systole; and LVPWd & s=LV posterior wall thickness in diastole or systole) were measured to assess the presence of dilated or hypertrophic cardiomyopathy. Measurements of the aortic and pulmonary artery diameters were used to calculate stroke volumes. Aortic pressure max (AoPmax) was assessed; and spectral Doppler velocities were measured for the pulmonic and aortic outflows to calculate cardiac output (CO), and for the mitral valve inflows to assess ventricular diastolic function (mitral valve E and A wave velocities and the E/A ratio were obtained). After echocardiography, animals were placed in room air until awake, and observed until fully recovered.
Rats treated with erlotinib (starting 10 mg/kg/day, oral) and/or Emend (aprepitant, starting 2 mg/kg/day, oral) received echocardiography at the indicated intervals (FIGS. 5A-5C).
Table 3 legend: Interventricular septum dimension in diastole (IVSd) and systole (IVSs); and LV posterior wall thickness in diastole (LVPWd) and systole (LVPWs). Rats treated with erlotinib (starting 10 mg/kg/day, oral) and/or Emend (aprepitant, starting 2 mg/kg/day, oral) received echocardiography at the indicated intervals. Values (% change) for erlotinib±Emend rats were compared to time-matched controls, and are means±SEM of 5-7 rats per group.

[7] = male, Sprague-Dawley, rat, in vivo, 9 weeks
Procedure: Male Sprague-Dawley rats (˜150 g) were purchased from Hilltop Lab Animals (Scottdale, Pa.). After one week of quarantine, the rats were divided into 4 groups: (1) Control group (N=5) receiving Mg normal diet (25 mmole Mg Oxide/kg food); (2) Erlotinib treated group (N=5, receiving erlotinib at a starting dose of 10 mg/kg/day in the diet); (3) Erlotinib+Emend group (N=7, receiving erlotinib plus Emend at a starting dose of 2 mg/kg/day in the diet); and (4) Emend alone group (N=5).

cancer cells = conditions: through NOX-4 up-regulation; cited from earlier work
[8] = patients with colorectal cancer, monoclonal antibodies targeting the EGFR; cited from earlier work
[9] = 9 weeks, Emend co-treatment with erlotinib
[10] = 7 weeks, Emend co-treatment of erlotinib-exposed rats
[11] = 7 weeks, Emend co-treatment, p<0.05 vs erlotinib alone
[12] = 9 weeks, Emend co-treatment, p<0.02
[13] = male, Sprague-Dawley, rat, in vivo
[14] = male, Sprague-Dawley, rat, in vivo, 7 weeks
[15] = male, Sprague-Dawley, rat, in vivo, 9 weeks

- effect on neutrophil superoxide activity (neutrophils; rat, in vivo): no effects
- nitro-tyrosine formation ([5]; rat, in vivo): did not have any effect
- impact on LV systolic, diastolic, hemodynamic and anatomical parameters compared to time-paired controls ([6]; rat, in vivo): did not have any significant impact
Molecule: C[C@@H](O[C@H]1OCCN(Cc2n[nH]c(=O)[nH]2)[C@H]1c1ccc(F)cc1)c1cc(C(F)(F)F)cc(C(F)(F)F)c1 [Emend, aprepitant]
- attenuation of severity of hypomagnesemia due to erlotinib ([1]; 9 week, Emend (starting 2 mg/kg/day) co-treatment with erlotinib): ~42%
- effect on erlotinib-induced increases in SP ([2]; Emend co-treatment with erlotinib): almost completely blocked
- effect on elevation of total plasma isoprostane caused by erlotinib [3, 9]: completely blocked
- effect on erlotinib-caused increase in basal superoxide generating activity (neutrophils; [9]): completely prevented
- effect on erlotinib-caused increase in stimulated superoxide generating activity (neutrophils; [9]): completely prevented
- food consumption compared to controls [4]: Neither ERL nor Emend affected food consumption
- nitro-tyrosine formation in the ventricles ([5]; 9 wk, Emend co-treatment with erlotinib): visibly attenuated
- improvement of LV % FS compared to erlotinib alone ([6]; 7 weeks, Emend co-treatment): 65.1%
- improvement of LVPWs ([6]; 7 weeks, Emend co-treatment): 53.4%
- protection against erlotinib-induced decline in cardiac output ([6]; 7 weeks, Emend co-treatment): 64.9%
- improvement of IVSd [6, 10]: 48.2%
- improvement of LVEF compared to erlotinib alone [6, 10]: 71.3%
- improvement of AoPmax ([6]; 7 weeks, Emend co-treatment): 86%
- improvement of IVSs [6, 11]: 76%
- improvement of LVPWd [6, 11]: 59.1%
- improvement of IVSd ([6]; 9 weeks, Emend co-treatment): 42.8%
- improvement of IVSs ([6]; 9 weeks, Emend co-treatment): 62%
- improvement of LVPWd ([6]; 9 weeks, Emend co-treatment): 49.8%
- improvement of LVPWs ([6]; 9 weeks, Emend co-treatment): 58.2%
- improvement of AoPmax ([6]; 9 weeks, Emend co-treatment): 64%
- improvement of LV % FS compared to erlotinib alone [6, 12]: 86.4%
- improvement of LVEF compared to erlotinib alone [6, 12]: 87.2%
- protection against erlotinib-induced decline in cardiac output ([6]; 9 weeks, Emend co-treatment, p<0.02 vs ERL alone): 75.4%
- improvement of mitral valve E/A ratio compared to erlotinib alone ([6]; 9 weeks, Emend co-treatment, p<0.05): 84.6%

- number of animals that developed facial lesion [7]: 5
- change in circulating Mg level vs time-matched control ([1]; 1.5 week): −2%
- change in circulating Mg level vs time-matched control ([1]; 9 weeks, p<0.001): −26%
- change in circulating Mg level vs time-matched control ([1]; wk 3): −9%
- change in circulating Mg level vs time-matched control ([1]; wk 5): −13%
- change in circulating Mg level vs time-matched control ([1]; wk 7): −16%
- increase in circulating SP vs time-matched control ([2]; week 3, p<0.05): 27.3%
- increase in circulating SP vs time-matched control ([2]; week 5, NS): 12.3%
- increase in circulating SP vs time-matched control ([2]; week 9, p<0.01): 25.4%
- increase of total plasma 8-isoprostane content ([3]; rat, in vivo): 210%
- neutrophil basal superoxide generating activity, higher than control (neutrophils; rat, in vivo): 3 fold
- decline in IVSd [6, 13]: 12.8-16.8%
- decline in LVPWs [6, 13]: 9.3-21.9%
- fall in LVPWd [6, 13]: 15.6-20.9%
- lower IVSs [6, 13]: 11.4-17.5%
- LV % fractional shortening (LV % FS) lower than time-matched control [6, 14]: 17.2%
- LV ejection fraction (LVEF) lower than time-matched control [6, 14]: 10.4%
- aortic pressure maximum lower than control [6, 14]: 17.1%
- cardiac output reduced vs control [6, 14]: 18.8%
- LV % fractional shortening (LV % FS) lower than time-matched control [6, 15]: 17.7%
- LV ejection fraction (LVEF) lower than time-matched control [6, 15]: 11%
- aortic pressure maximum lower than control [6, 15]: 27.5%
- cardiac output reduced vs control [6, 15]: 20.3%
- mitral valve E/A ratio reduction [6, 15]: 17.5%
- changes in cardiac contractile function ([6]; rat, in vivo): No significant changes
- mitral valve E/A ratio ([6]; rat, in vivo): not significantly affected
Molecule: C#Cc1cccc(Nc2ncnc3cc(OCCOC)c(OCCOC)cc23)c1 [Erlotinib, erlotinib]
- cellular oxidative stress (cancer cells): can provoke cellular oxidative stress
- food consumption compared to controls [4]: Neither ERL nor Emend affected food consumption
- cardiac nitro-tyrosine (NT) presence, immunohistochemical staining ([5]; 9 wk of Erlotinib treatment): substantial perivascular and diffused NT presence

Molecule: panitumumab
- hypomagnesemia in treated patients [8]: pronounced hypomagnesemia
